According to patent publication US11191705B2, “Personal cleansing compositions” (The Procter & Gamble Company, priority 2018, dated 2021):

System: Staphylococcus aureus ATCC 6538
Assay: Combinatorial Minimum Inhibitory Concentration (cMIC) test
Type: cell-based
Design: key to bacteria growth (values equal to or higher than 10 mean growth, less than 10 no growth): % of OD620 of control well without actives (full growth)
Settings: for reduction of level when combined (MIC alone / level in combination): 33.3/3.13 for hinokitiol, 12.5/6.25 for piroctone olamine
Procedure: One way to combat the issues of cost of a material is to combine it with a lower cost material. This can be complicated depending on whether the materials interact, what each of the materials target, whether they can complement one another, how much of each is needed for efficacy, etc. This is considered to be an additive interaction between the materials, i.e. where each is doing what one would expect based on their individual properties. Occasionally, when materials are added together the combination performs better than what would be expected based on the individual performances. This is considered a synergistic relationship. Synergy can be determined through the use of a Combinatorial Minimum Inhibitory Concentration (“cMIC”) test. This can be used to determine the combinatorial effects of two chemicals on anti-bacterial activity in a tissue culture setting.
It has been discovered that there is a synergistic relationship between hinokitiol and a 2-pyridinol N-oxide material, piroctone olamine. cMIC testing was conducted utilizing Staphylococcus aureus as the bacteria. […] When combined, they were efficacious at levels of 6.25 ppm piroctone olamine and only 3.13 ppm of hinokitiol. Thus, a benefit is seen where the combination of piroctone olamine and hinokitiol comprise about 9 ppm or more by weight of the cleansing composition. Thus, hinokitiol and piroctone olamine levels are reduced by 10.7 times (33.3/3.13) and 2 times (12.5/6.25), respectively. […] Thus, combining piroctone olamine and hinokitiol allows for the use of less of each material and can reduce costs.
Combinatorial Minimum Inhibitory Concentration (cMIC) Method
A Combinatorial Minimum Inhibitory Concentration (“cMIC”) is used to determine the combinatorial effects of two chemicals on anti-bacterial activity in a tissue culture setting. Herein, the cMIC is a measure of the Minimum Inhibitory concentrations (MIC) of Hinokitiol in combination with Piroctone Olamine or vice versa.
1. Method Overview: • a. Each cMIC assay is run in triplicates. • b. Staphylococcus aureus ATCC 6538 is cultured on tryptic soy agar (TSA) (Oxoid CM0131) over 24 hours. The single colonies are then transferred into saline and mixed through vortex to obtain an optical density (OD) of 0.08-0.13 at 620 nm. 200 μL of this bacterial suspension is added to 19.8 mL of Mueller Hinton Broth (MHB) (BD 212322). This gives 5×10^5 cfu/mL. 100 μL of this bacteria-MHB mix is added to a 96 well flat-bottomed plate (TRP 92196). • c. Hinokitiol is pipetted into the wells in varying concentrations as indicated below. • d. Piroctone Olamine is pipetted into the wells in varying concentrations, as indicated below. • e. The plates are then read using a spectrophotometer at 620 nm. This is the 0-hour reading. • f. The plates are incubated at 37° C. between 18-24 hours with shaking at 50 rpm. • g. The optical density of the plate is then measured using a spectrophotometer at 620 nm. • h. The OD value is calculated as subtraction of the readings between 18-24 hour and the 0-hour. • i. cMIC is determined as the minimal concentration of Hinokitiol in combination with Piroctone Olamine or vice versa, corresponding to the well whose OD value is less than 10% of the OD value of the control well without Hinokitiol and Piroctone Olamine (full growth).

Row | Compound | reduction of level when combined (MIC alone / level in combination) [times] | bacteria growth (values equal to or higher than 10 mean growth, less than 10 no growth) (Hinokitiol 3.13 ppm alone (Piroctone Olamine 0 ppm)) | bacteria growth (values equal to or higher than 10 mean growth, less than 10 no growth) (Hinokitiol 6.25 ppm alone (Piroctone Olamine 0 ppm)) | bacteria growth (values equal to or higher than 10 mean growth, less than 10 no growth) (Hinokitiol 12.5 ppm alone (Piroctone Olamine 0 ppm)) | bacteria growth (values equal to or higher than 10 mean growth, less than 10 no growth) (Hinokitiol 25 ppm alone (Piroctone Olamine 0 ppm)) | bacteria growth (values equal to or higher than 10 mean growth, less than 10 no growth) (Hinokitiol 33.5 ppm alone (Piroctone Olamine 0 ppm)) | bacteria growth (values equal to or higher than 10 mean growth, less than 10 no growth) (Hinokitiol 42.5 ppm alone (Piroctone Olamine 0 ppm)) | bacteria growth (values equal to or higher than 10 mean growth, less than 10 no growth) (Hinokitiol 50 ppm alone (Piroctone Olamine 0 ppm)) | Bacterial growth (Piroctone olamine 0 ppm, Hinokitiol 33.5 ppm) | MIC (Staphylococcus aureus, ATCC6538, single material alone, read-out: minimum inhibitory concentration (MIC) against Staphylococcus aureus) [µg/mL] | bacteria growth (values equal to or higher than 10 mean growth, less than 10 no growth) (Piroctone Olamine 3.13 ppm alone (Hinokitiol 0 ppm)) | bacteria growth (values equal to or higher than 10 mean growth, less than 10 no growth) (Piroctone Olamine 6.25 ppm alone (Hinokitiol 0 ppm)) | bacteria growth (values equal to or higher than 10 mean growth, less than 10 no growth) (Piroctone Olamine 12.5 ppm alone (Hinokitiol 0 ppm)) | bacteria growth (values equal to or higher than 10 mean growth, less than 10 no growth) (Piroctone Olamine 15 ppm alone (Hinokitiol 0 ppm)) | bacteria growth (values equal to or higher than 10 mean growth, less than 10 no growth) (Piroctone Olamine 17.5 ppm alone (Hinokitiol 0 ppm)) | bacteria growth (values equal to or higher than 10 mean growth, less than 10 no growth) (Piroctone Olamine 20 ppm alone (Hinokitiol 0 ppm)) | bacteria growth (values equal to or higher than 10 mean growth, less than 10 no growth) (Piroctone Olamine 25 ppm alone (Hinokitiol 0 ppm)) | Bacterial growth (Piroctone olamine 6.25 ppm, Hinokitiol 0 ppm) | minimum inhibitory concentration (MIC) against Staphylococcus aureus (single material alone) [ppm]
1 | CC(C)c1cccc(=O)c(O)c1 [Hinokitiol] | 10.7 | 78 | 103 | 65 | 17 | 4 | 2 | 1 | Yes | 33.3 | – | – | – | – | – | – | – | – | –
2 | Cc1cc(CC(C)CC(C)(C)C)n(O)c(=O)c1.NCCO (centres unmarked) [Piroctone Olamine, piroctone olamine] | 2 | – | – | – | – | – | – | – | – | – | 94 | 46 | 1 | 1 | 1 | 1 | 2 | Yes | 12.5
